# Laboratory results from patent publication US20070203212A1, “METHOD OF TREATING OSTEOARTHRITIS” (WARNER-LAMBERT COMPANY, priority 2002, published 2007).
# How the values were obtained:
# [1] = test system: monoclonal antibody-induced arthritis; assay: Monoclonal antibody-induced arthritis (MAIA) mouse model, footpad and ankle swelling; type: in vivo; details: p<0.05 (FIG. 8)
# Protocol: In a typical MAIA experiment, groups of four mice were injected intraperitoneally (“i.p.”) with 0.4 mL (BALB/c and DBA/1 strains) or 0.8 mL (C57BL/6, 129X1/SvJ, C3H/HeJ, and C3H/FeJ strains) with a 10 mg/mL solution of Arthrogen-CIA Monoclonal Antibody Blend (Chemicon International, Inc.). Two days later, the mice were injected i.p. with 0.2 mL of a 0.25 mg/mL solution of LPS (lipopolysaccharide form Escherichia coli (“E. coli”) strain 0111B4) in PBS. Footpad and ankle size was assessed using a Dyer Digital Caliper (#655-030-4916) on the day of mAb injection, and every two days following LPS injection.
# [2] = test system: experimental osteoarthritis (anterior cruciate ligament section); assay: Experimental osteoarthritis in rabbit (EOA in Rabbit); type: in vivo; details: 30 or 10 mg/kg/dose three times per day, 8 weeks; 'if these EOA studies were performed'
# Protocol: Normal rabbits are anaesthetized and anteromedial incisions of the right knees performed. The anterior cruciate ligaments are visualized and sectioned. The wounds are closed and the animals are housed in individual cages, exercised, and fed ad libitum. Rabbits are given either vehicle (water) or 6-(5-carboxy-5-methyl-hexyloxy)-2,2-dimethyl-hexanoic acid, calcium salt, or a pharmaceutically acceptable salt thereof, (10 rabbits per group). Each group is dosed three times per day with the 6-(5-carboxy-5-methyl-hexyloxy)-2,2-dimethyl-hexanoic acid, calcium salt, or a pharmaceutically acceptable salt thereof, group receiving 30-mg/kg/dose or 10-mg/kg/dose. The rabbits are euthanized 8 weeks after surgery and the proximal end of the tibia and the distal end of the femur are removed from each animal.
# The cartilage changes on the femoral condyles and tibial plateaus are graded separately under a dissecting microscope (Stereozoom, Bausch & Lomb, Rochester, N.Y.). […] The surface area changes are measured and expressed in mm^2. […]
# Representative specimens of synovial membrane from the medial and lateral knee compartments are dissected from underlying tissues. […] The average score is calculated and considered as a unit for the whole knee. […]
# Mean values and SEM are calculated and statistical analysis is done using the Mann-Whitney U-test.
# [3] = test system: prostaglandin-F2a (PGF2a) expression; assay: PGF2a expression from calcium ionophore-stimulated rat basophilic leukemia cells; type: cell-based
compound,measurement,setting,value
"CC(C)(CCCCOCCCCC(C)(C)C(=O)[O-])C(=O)[O-].[Ca+2] [CI-1027, 6-(5-carboxy-5-methyl-hexyloxy)-2,2-dimethyl-hexanoic acid, calcium salt]",change in mouse ankle joint and paw swelling,"[1]; 100 mg/kg oral daily, Day 7",inhibits a change in mouse ankle joint and paw swelling
same,change in mouse ankle joint and paw swelling,"[1]; 200 mg/kg oral daily, Days 4, 7 and 9",inhibits a change in mouse ankle joint and paw swelling
same,lesion size on tibial plateaus / cartilage damage,[2],reduce the size of the lesion on the tibial plateaus
same,inhibition of PGF2a expression,[3],does not inhibit
